According to PubChem BioAssay AID493142 (Sanford-Burnham Center for Chemical Genomics, 2011):
Where “and” joins values, the source holds several entries; their conditions need not be identical. Identical values can stand only once. Calls of active or inactive are those of the source.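 Rule for the calls: active = mean IC50 below 100 µM; inactive = the rest.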

target: Intestinal alkaline phosphatase (Alpi) [Mus musculus]; test: inhibitors of murine Alpi enzyme – biochemical, ortholog specificity, luminescence, selectivity assay for human IAP inhibitor project, SAR follow-up (AID 493142); conditions: Purified mouse IAP, CDP-Star luminescence, 30 min

Row | IC50 | Structure (SMILES)
1 | 22.2 µM | O=[N+]([O-])c1ccccc1NC(=S)N/N=C/c1ccc(O)c(O)c1O
2 | 80.8 µM | O=S(=O)(c1ccc(NC(=S)N/N=C/c2ccc(O)c(O)c2O)cc1)N1CCOCC1
3 | 3.85 µM | Cc1ccc(Cl)cc1Nc1nc(-c2ccc(O)c(O)c2)cs1
4 | > 100 µM (inactive) | CCOc1cc(/C=N/N=C2\NC(=O)C(CC(=O)O)S2)ccc1O (stereo unspecified)
5 | > 100 µM (inactive) | COC(=O)/C=C1/S/C(=N/N=Cc2ccc(N(C)C)cc2)NC1=O
6 | > 100 µM (inactive) | Cc1ccc(Nc2nc(-c3ccc(O)cc3O)cs2)cc1
7 | > 100 µM (inactive) | Cc1cccc(NC(=S)NN=Cc2ccc3c(c2)OCO3)c1
8 | > 100 µM (inactive) | COc1ccc(C=NN=C2SC(CC(=O)O)C(=O)N2c2ccc(O)cc2)cc1 (stereo unspecified)
9 | 2.11 µM | NS(=O)(=O)c1ccc(Nc2nc(-c3ccc(O)c(O)c3)cs2)cc1
10 | > 100 µM (inactive) | COc1cc(C=NNC(=S)Nc2cccc(S(=O)(=O)N(C)C)c2)cc(OC)c1O
11 | 88.1 µM | COc1ccc(C(=O)NNC(=S)NC2CCCCC2)cc1OC
12 | 57.7 µM | Cc1ccc2nc(NNC(=O)c3ccc4c(c3)OCCO4)sc2c1
13 | > 100 µM (inactive) | Cc1cc(C)cc(Nc2nc(-c3ccc(O)cc3O)cs2)c1
14 | > 100 µM (inactive) | COc1ccc(C=NNC(=S)Nc2ccccc2[N+](=O)[O-])cc1O
15 | > 100 µM (inactive) | COc1cc([N+](=O)[O-])ccc1NC(=S)NCCC(c1ccccc1)c1ccccc1
16 | > 100 µM (inactive) | COC(=O)/C=C1/S/C(=N/NC(=O)c2ccc(OC)cc2)NC1=O
17 | > 100 µM (inactive) | Oc1ccc(-c2csc(Nc3ccccc3)n2)c(O)c1
18 | > 100 µM (inactive) | COc1ccc(/C=N/N=C2/NC(=O)C(CC(=O)O)S2)cc1OC (stereo unspecified)
19 | > 100 µM (inactive) | COC(=O)/C=C1\SC(N=Nc2c(O)[nH]c3ccccc23)=NC1=O
20 | 4.43 µM and 12 µM | Cc1c(Cl)cccc1Nc1nc(-c2ccc(O)c(O)c2)cs1
21 | > 100 µM (inactive) | COc1ccc(NC(=S)NCCC(c2ccccc2)c2ccccc2)cc1
22 | 6.98 µM | CCOc1ccc(Nc2nc(-c3ccc(O)c(O)c3)cs2)cc1
23 | > 100 µM (inactive) | COc1ccc(/C=N/N=C2\NC(=O)C(CC(=O)O)S2)c(OC)c1 (stereo unspecified)
24 | > 100 µM (inactive) | S=C(NCCC(c1ccccc1)c1ccccc1)Nc1ccc(Cl)cc1Cl
25 | 5.23 µM and 4.64 µM | COc1ccc(Cl)cc1Nc1nc(-c2ccc(O)c(O)c2)cs1
26 | > 100 µM (inactive) | COc1ccc(C=Nn2c(=S)n(C)c3ccccc32)cc1OC
27 | > 100 µM (inactive) | CCN(CC)S(=O)(=O)c1ccc(-c2csc(=Nc3cccc4ccccc34)n2C)cc1
28 | 1.02 µM | O=S(=O)(c1ccc(NC(=S)N/N=C/c2ccc(O)c(O)c2)cc1)N1CCOCC1

More lines, now with the values behind:

Row | Structure (SMILES) | IC50
29 | COc1cc(/C=N/N=C2/SCC(=O)N2c2ccc(O)cc2)ccc1O | > 100 µM (inactive)
30 | CCOc1cc(C=NNC(=S)NC2CCCCC2)ccc1O | > 100 µM (inactive)
31 | Cn1c(=S)n(N=Cc2ccc3c(c2)OCO3)c2ccccc21 | > 100 µM (inactive)
32 | Cc1cc(=O)oc2cc(NC(=S)NCCC(c3ccccc3)c3ccccc3)ccc12 | > 100 µM (inactive)
33 | COC(=O)/C=C1/S/C(=N/NC(=O)c2ccccc2OC)NC1=O | > 100 µM (inactive)
34 | Cc1ccc(Nc2nc(-c3ccc(O)c(O)c3)cs2)cc1F | 9.66 µM
35 | Cc1cccc(Nc2nc(-c3ccc(O)c(C(N)=O)c3)cs2)c1 | > 100 µM (inactive)
36 | Cc1cccc2sc(NNC(=O)c3ccc4c(c3)OCCO4)nc12 | 76 µM
37 | Cc1ccc(-c2ccc(/C=N/N=C3\NC(=O)C(CC(=O)O)S3)o2)c([N+](=O)[O-])c1 (stereo unspecified) | > 100 µM (inactive)
38 | CCOc1cc(C=N/N=C2/NC(=O)C(CC(=O)O)S2)ccc1OCc1ccccc1Cl (stereo unspecified) | > 100 µM (inactive)
39 | Cc1cccc(Nc2nc(-c3ccc(O)c(O)c3)cs2)c1 | 7.77 µM
40 | O=[N+]([O-])c1ccccc1NC(=S)NN=Cc1ccc(O)c(O)c1 | 6.64 µM
41 | COc1cc(C(=O)NNC(=S)Nc2ccc(S(N)(=O)=O)cc2)cc(OC)c1OC | > 100 µM (inactive)
42 | COC(=O)/C=C1/S/C(=N/NC(=O)c2ccc(Cl)cc2Cl)NC1=O | > 100 µM (inactive)
43 | COc1cc(C=NNC(=S)Nc2cccc(S(=O)(=O)N(C)C)c2)ccc1O | > 100 µM (inactive)
44 | N#CCCn1cc(/C=N/N=C2/NC(=O)C(CC(=O)O)S2)c(-c2ccc(F)cc2)n1 (stereo unspecified) | > 100 µM (inactive)
45 | Cc1ccc(Nc2nc(-c3ccc(O)c(C(N)=O)c3)cs2)cc1 | > 100 µM (inactive)
46 | CN(C)S(=O)(=O)c1cccc(NC(=S)NN=Cc2ccc(O)c(O)c2O)c1 | 27.6 µM
47 | Cc1ccc2sc(NNC(=O)c3ccc4c(c3)OCCO4)nc2c1C | > 100 µM (inactive)
48 | Cc1ccc(Nc2nc(-c3ccc(O)c(O)c3)cs2)cc1 | 6.64 µM
49 | FC(F)(F)c1cccc(NC(=S)NCCC(c2ccccc2)c2ccccc2)c1 | > 100 µM (inactive)
50 | COC(=O)/C=C1/S/C(=N/NC(=O)c2ccccc2C)NC1=O | > 100 µM (inactive)
51 | COc1cc([N+](=O)[O-])ccc1NC(=S)NNC(=O)c1ccc2c(c1)OCO2 | 95.4 µM
52 | Cc1ccc(Nc2nc(-c3ccc(O)cc3O)cs2)cc1F | > 100 µM (inactive)

Row | Structure (SMILES) | IC50
53 | COc1cc(/C=N/N=C2\NC(=O)C(CC(=O)O)S2)cc(OC)c1OC (stereo unspecified) | > 100 µM (inactive)
54 | COC(=O)/C=C1/S/C(=N/NC(=O)c2ccccc2)NC1=O | > 100 µM (inactive)
55 | O=S(=O)(Nc1ncccn1)c1ccc(NC(=S)NCCC(c2ccccc2)c2ccccc2)cc1 | > 100 µM (inactive)
56 | O=C(O)CC1S/C(=N/N=C/c2ccco2)NC1=O (stereo unspecified) | > 100 µM (inactive)
57 | Oc1ccc(Nc2nc(-c3ccc(O)c(O)c3)cs2)cc1 | 1.4 µM
58 | CCc1ccccc1Nc1nc(-c2ccc(O)c(O)c2)cs1 | 5.47 µM and 4.15 µM
59 | NS(=O)(=O)c1ccc(Nc2nc(-c3ccc(O)cc3O)cs2)cc1 | 49 µM
60 | Oc1ccc(-c2csc(Nc3ccc(F)cc3)n2)cc1O | 5.59 µM
61 | Cc1cccc(NC(=S)NNC(=O)c2ccc3c(c2)OCO3)c1 | 58.5 µM
62 | CC(C)(C)c1ccc(/C=N/N=C2\NC(=O)C(CC(=O)O)S2)cc1 (stereo unspecified) | > 100 µM (inactive)
63 | COc1cccc(Nc2nc(-c3ccc(O)cc3)cs2)c1 | > 100 µM (inactive)
64 | COC(=O)/C=C1\S/C(=N/N=C/c2ccc(Cl)cc2)NC1=O | > 100 µM (inactive)
65 | Oc1ccc(-c2csc(Nc3cccc4ccccc34)n2)cc1O | 2.72 µM and 5.26 µM
66 | Cc1cccc(C)c1NC(=S)N/N=C/c1ccc(O)c(O)c1O | 58.3 µM
67 | COc1cc(C=NNC(=S)Nc2cccc(C(=O)O)c2)ccc1O | > 100 µM (inactive)
68 | O=[N+]([O-])c1ccc(NC(=S)NCCC(c2ccccc2)c2ccccc2)cc1 | > 100 µM (inactive)
69 | COC(=O)C/C=N/N=C1\NC(=O)/C(=C/C(=O)O)S1 | > 100 µM (inactive)
70 | COc1ccc(-c2csc(Nc3cccc4ccccc34)n2)cc1 | > 100 µM (inactive)
71 | COc1ccc(-c2csc(Nc3cccc4ccccc34)n2)cc1F | > 100 µM (inactive)
72 | Cc1ccc(C)c(Nc2nc(-c3ccc(O)cc3O)cs2)c1 | > 100 µM (inactive)
73 | Cc1ccc(Nc2nc(-c3ccc(O)cc3O)cs2)cc1C | > 100 µM (inactive)
74 | COC(=O)/C=C1\S/C(=N/N=C/CC(=O)OC)NC1=O | > 100 µM (inactive)
75 | COc1cc(C=NN=C2SC(CC(=O)O)C(=O)N2c2ccc(O)cc2)ccc1O (stereo unspecified) | > 100 µM (inactive)
76 | CC(=NNC(=S)Nc1ccccc1)c1ccc2c(c1)OCO2 | > 100 µM (inactive)
